Measurements as given in PubChem BioAssay (NCI).
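The compound was tested at five concentrations on cells cultured in 96-well plates, with a 48-hour exposure period. At the GI50, growth is halved. TGI marks complete inhibition of growth.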

Experiments:
Assay in all cases: inhibition of tumour cell growth, NCI panel, 48 h
A498 renal = test system: A498 renal
CCRF-CEM leukemia = test system: CCRF-CEM leukemia
ACHN renal = test system: ACHN renal
HL-60(TB) leukemia = test system: HL-60(TB) leukemia
SR leukemia = test system: SR leukemia
HCT-15 colon = test system: HCT-15 colon
OVCAR-8 ovarian = test system: OVCAR-8 ovarian
LOX IMVI melanoma = test system: LOX IMVI melanoma
MCF7 breast = test system: MCF7 breast
MDA-MB-435 = test system: MDA-MB-435

Compound	TGI (A498 renal)	TGI (CCRF-CEM leukemia)	TGI (ACHN renal)	TGI (HL-60(TB) leukemia)	TGI (SR leukemia)	TGI (HCT-15 colon)	TGI (OVCAR-8 ovarian)	TGI (LOX IMVI melanoma)	GI50 (A498 renal)	GI50 (CCRF-CEM leukemia)	GI50 (ACHN renal)	GI50 (HL-60(TB) leukemia)	GI50 (SR leukemia)	GI50 (OVCAR-8 ovarian)	GI50 (LOX IMVI melanoma)	GI50 (MCF7 breast)	TGI (MCF7 breast)	GI50 (HCT-15 colon)	GI50 (MDA-MB-435)	TGI (MDA-MB-435)
COc1ccc(C(=O)C2CCC(C(=O)O)C2)cc1 (stereo not drawn)	> 100 µM	> 100 µM	> 100 µM	> 100 µM	> 100 µM	> 100 µM	> 100 µM	> 100 µM												
CCCCCCCCCCCCSC(=S)c1c(C)[nH]n(-c2ccccc2)c1=O	> 50 µM	23.2 µM	> 50 µM	24.4 µM		> 50 µM	> 50 µM	> 50 µM												
CSC(=O)C[C@@]12O[C@@H]([C@@H](C)C3CCC4[C@@H]5C(O)CC6=CC(=O)C=C[C@]6(C)C5CC[C@@]43C)C[C@](C)(O1)C(C)(C)O2 (stereo partly drawn)	31.5 µM	19.1 µM		38.2 µM	34.8 µM	32 µM	37.9 µM	25.1 µM												
CCN(CC)CCN(CC)CC.CCN(CC)CCN(CC)CC.[Cu+2].[Cu+2].[O-][Cl+3]([O-])([O-])[O-].[OH3+].[OH3+]	37.9 µM	> 100 µM	> 100 µM	> 100 µM	> 100 µM		> 100 µM	45.7 µM	22.4 µM	37.6 µM	> 100 µM	30.8 µM	> 100 µM	> 100 µM	14.4 µM					
COc1cc2nc(Nc3cccc(Cl)c3)nc(N)c2cc1OC	20.1 µM	7.3 µM	23.8 µM	39.4 µM		10.4 µM	22.6 µM	6.14 µM	6.57 µM	2.36 µM	11.4 µM	10.7 µM		6.29 µM	2.45 µM	4.32 µM	17.4 µM	2.62 µM	2.81 µM	9.71 µM
CCOC(=O)C12CCCC1(O)N(NC(=O)OC)C(C)=C2C(=O)OC (stereo not drawn)	> 100 µM	> 100 µM	> 100 µM	> 100 µM		> 100 µM	> 100 µM	> 100 µM												
C=C(C)[C@@H]1CC[C@]2(CO)CC[C@]3(C)[C@H](CC[C@@H]4[C@@]5(C)CCCNC(C)(C)[C@@H]5CC[C@]43C)[C@@H]12	5.63 µM	4.91 µM	3.09 µM			2.77 µM	3.51 µM		2.17 µM	2.07 µM	1.7 µM			1.83 µM		1.29 µM	2.77 µM	1.39 µM		
CC(C)(C)C(=O)N1C(C(=O)O)Cc2ccccc2[C@@H]1Cc1ccccc1 (stereo partly drawn)	> 100 µM	> 100 µM	> 100 µM	> 100 µM		> 100 µM	> 100 µM													
CSC(=NC(=O)c1ccccc1Cl)SCCSC(=NC(=O)c1ccccc1Cl)SC	> 100 µM	> 100 µM	> 100 µM	> 100 µM		> 100 µM	> 100 µM	> 100 µM												
CC(=O)O.CN1[CH-]N(Cc2ccc(C#N)cc2)c2ccccc21.[Ag+]	> 100 µM	61.1 µM	30.2 µM	45.9 µM		38 µM	75.9 µM	36.2 µM	> 100 µM	22.2 µM	16.3 µM	20.3 µM		23.9 µM	15.6 µM	17.8 µM	51.7 µM	18 µM	16.9 µM	32 µM
CN(C)CCNc1ccc2ncn3c4ccc(O)cc4c(=O)c1c23	8.04 µM	15.3 µM	4.6 µM	13.6 µM		10.2 µM	7.76 µM	3.36 µM									4.91 µM			14.7 µM
Cc1cccc(-c2nnc3s/c(=C\c4ccc(N(C)C)cc4)c(=O)n23)c1	> 100 µM	> 100 µM	> 100 µM	> 100 µM			> 100 µM	> 100 µM												
Cc1ccc(OCC2CO2)c(Br)c1 (stereo not drawn)	> 100 µM	> 100 µM	21.2 µM	> 100 µM		29.2 µM	20.4 µM	30.4 µM									34.9 µM			48.2 µM
CSc1cc([C@@H]2C[C@H]2c2ccc(Cl)cc2)on1		47.2 µM	> 100 µM			36.9 µM	46.1 µM	19.9 µM		20.3 µM	13.9 µM			12.3 µM	3.99 µM	16.3 µM	41 µM	10.8 µM	16.8 µM	45.1 µM
CSc1ccc(C2=NN(C(C)=O)C(c3ccc(-c4cc(Cl)c(Cl)cc4Cl)o3)C2)cc1 (stereo not drawn)		47 µM	29.9 µM	30.4 µM		28 µM	36.9 µM	28.7 µM		21.5 µM	15.8 µM	12 µM		16.9 µM	15.4 µM	12.5 µM	26.5 µM	14.8 µM	15.5 µM	36.4 µM
Cc1cc(OCc2nnc3n2S(=O)(=O)c2ccccc2N3C)ccc1Cl	55.3 µM	38 µM	53 µM	55.1 µM		> 100 µM	> 100 µM	> 100 µM									> 100 µM			> 100 µM
c1ccc(SC(Sc2ccccc2)=C2CCC2)cc1	> 100 µM	> 100 µM	> 100 µM	> 100 µM	> 100 µM	> 100 µM	> 100 µM	> 100 µM												
O=[N+]([O-])c1nccn1CC(O)c1ccccc1 (stereo not drawn)	> 100 µM	> 100 µM	> 100 µM	> 100 µM		> 100 µM	> 100 µM	> 100 µM												
CCOC(=O)C1(C(=O)OCC)C(C(C)(C)C)=C(C)c2ccccc21		40.9 µM	28 µM	40.9 µM	> 100 µM	28.7 µM	66.1 µM	25 µM												
Cc1ccc(NCC2(/N=C/c3ccccc3)OC(CO)C(O)C2O)cc1 (stereo not drawn)		99.2 µM	> 100 µM	64.7 µM	> 100 µM	> 100 µM	> 100 µM													
CN(C)c1ccc(/C=c2\sc3nnc(-c4ccco4)n3c2=O)cc1	> 100 µM	> 100 µM		> 100 µM			> 100 µM	> 100 µM												
O=C(C[n+]1ccccc1)N/N=C(/CCC(=O)N(Cc1ccccc1)Cc1ccccc1)CC(=O)c1ccccc1	> 100 µM	> 100 µM	> 100 µM	> 100 µM	> 100 µM	> 100 µM	> 100 µM	> 100 µM												
